Here are results for five molecules from patent publication US20150141411A1, “SUBSTITUTED 3,4-DIHYDRO-2H-PYRIDO[1,2-A]PYRAZINE-1,6-DIONE DERIVATIVES USEFUL FOR THE TREATMENT OF (INTER ALIA) ALZHEIMER'S DISEASE” (Janssen Pharmaceuticals, Inc., priority 2012, published 2015).

SMILES strings stand for the structures.

One experiment concerns Aβ38. In words: In vivo efficacy: brain soluble Aβ38 in non-transgenic rodents (MSD electrochemiluminescence multiplex). On the set-up: species or system mouse. Conditions: Mus musculus, po, 4 h, dose 30 mg/kg oral dosing, brain soluble fraction, animals sacrificed after 4 h, untreated animals (Ctrl) set at 100, read-out: Aβ38 (% vs Ctrl)_Mean. An excerpt:
To determine whether acute administration of an Aβ38 increasing agents would increase Aβ38 levels in vivo, non-transgenic rodents, e.g. mice or rats were used. Animals treated with the Aβ38 increasing agents were examined and compared to those untreated or treated with vehicle and brain levels of soluble Aβ42, Aβ40, Aβ38, and Aβ37 were quantitated by MSD electrochemiluminescence detection technology. Treatment periods varied from hours (h) to days and were adjusted based on the results of the Aβ38 increase once a time course of onset of effect could be established.
A typical protocol for measuring Aβ38 increase in vivo is shown but it is only one of many variations that could be used to optimize the levels of detectable Aβ. For example, Aβ38 increasing agents were formulated in 20% of Captisol® (a sulfobutyl ether of β-cyclodextrin) in water or 20% hydroxypropyl βcyclodextrin. The Aβ38 increasing agents were administered as a single oral dose or by any acceptable route of administration to overnight fasted animals. After 4 h, the animals were sacrificed and Aβ38 levels were analysed.
(§1) Blood was collected by decapitation and exsanguinations in EDTA-treated collection tubes. Blood was centrifuged at 1900 g for 10 minutes (min) at 4° C. and the plasma recovered and flash frozen for later analysis. The brain was removed from the cranium and hindbrain. The cerebellum was removed and the left and right hemisphere were separated. The left hemisphere was stored at −18° C. for quantitative analysis of test compound levels. The right hemisphere was rinsed with phosphate-buffered saline (PBS) buffer and immediately frozen on dry ice and stored at −80° C. until homogenization for biochemical assays.
(§2) Mouse brains from non-transgenic animals were resuspended in 8 volumes of 0.4% DEA (diethylamine)/50 mM NaCl containing protease inhibitors (Roche-11873580001 or 04693159001) per gram of tissue, e.g. for 0.158 g brain, add 1.264 ml of 0.4% DEA. All samples were homogenized in the FastPrep-24 system (MP Biomedicals) using lysing matrix D (MPBio #6913-100) at 6 m/s for 20 seconds. Homogenates were centrifuged at 20800×g for 5 min and supernatants collected. Supernatants were centrifuged at 221.300×g for 50 min. The resulting high speed supernatants were then transferred to fresh eppendorf tubes. Nine parts of supernatant were neutralized with 1 part 0.5 M Tris-HCl pH 6.8 and used to quantify Aβ.
(§3) To quantify the amount of Aβ42, Aβ40, Aβ38, and Aβ37 in the soluble fraction of the brain homogenates, simultaneous specific detection of Aβ42, Aβ40, Aβ38, and Aβ37 was performed using MSD's electro-chemiluminescence multiplex detection technology. In this assay purified monoclonal antibodies specific for Abeta37 (JRD/Aβ37/3), Abeta38 (J&JPRD/Aβ38/5), Abeta40 (JRF/cAβ40/28), and Abeta42 (JRF/cAβ42/26) were coated on MSD 4-plex plates. Briefly, the standards (a dilution of synthetic Aβ42, Aβ40, Aβ38, and Aβ37) were prepared in 1.5 ml Eppendorf tube in Ultraculture, with final concentrations ranging from 10000 to 0.3 pg/m. The samples and standards were co-incubated with Sulfo-tag labelled JRF/rAβ/2 antibody to the N-terminus of Aβ as detector antibody. 50 μl of conjugate/sample or conjugate/standards mixtures were then added to the antibody-coated plate. The plate was allowed to incubate overnight at 4° C. in order to allow formation of the antibody-amyloid complex. Following this incubation and subsequent wash steps the assay was finished by adding read buffer according to the manufacturer's instructions (MesoScale Discovery, Gaitherburg, Md.).
(§4) The SULFO-TAG emits light upon electrochemical stimulation initiated at the electrode. MSD Sector instrument SI6000 was used for signal read-out.
In this model a Aβ38 increase compared to untreated animals would be advantageous, in particular a Aβ38 increase with at least 10%, more in particular a Aβ38 increase with at least 20%. […]

A further experiment has as its system Aβ40. The experiment is described as follows: In vivo efficacy: brain soluble Aβ40 in non-transgenic rodents (MSD electrochemiluminescence multiplex). More on the design: species or system mouse. Conditions: Mus musculus, po, 4 h, dose 30 mg/kg oral dosing, brain soluble fraction, animals sacrificed after 4 h, untreated animals (Ctrl) set at 100, read-out: Aβ40 (% vs Ctrl)_Mean.
Excerpt: To determine whether acute administration of an Aβ42 lowering agent would reduce Aβ42 levels in vivo, non-transgenic rodents, e.g. mice or rats were used. Animals treated with the Aβ42 lowering agent were examined and compared to those untreated or treated with vehicle and brain levels of soluble Aβ42, Aβ40, Aβ38, and Aβ37 were quantitated by Meso Scale Discovery's (MSD) electrochemiluminescence detection technology. Treatment periods varied from hours (h) to days and were adjusted based on the results of the Aβ42 lowering once a time course of onset of effect could be established.
A typical protocol for measuring Aβ42 lowering in vivo is shown but it is only one of many variations that could be used to optimize the levels of detectable Aβ. For example, Aβ42 lowering compounds were formulated in 20% of Captisol® (a sulfo-butyl ether of β-cyclodextrin) in water or 20% hydroxypropyl βcyclodextrin. The Aβ42 lowering agents were administered as a single oral dose or by any acceptable route of administration to overnight fasted animals. After 4 h, the animals were sacrificed and Aβ42 levels were analysed.
as §1, §2
as §3, with “(Meso Scale” for “(MesoScale”
as §4
The results are shown in Table 5 (dose 30 mg/kg oral dosing) (value for untreated animals as control (Ctrl) was set at 100): […]

Regarding `Cc1cn(-c2ccc3n(c2=O)CCN(C(C)c2c[nH]c4cc(F)c(Cl)cc24)C3=O)cn1` (single isomer, unassigned) [compound 183], the response vs control in vivo at 30 mg/kg with Aβ38 worked out at 141%; in the experiment on Aβ40, 133%.

As for `Cc1cn(-c2ccc3n(c2=O)CC(C)N(C(C)c2c[nH]c4c(F)cc(Cl)cc24)C3=O)cn1` (single isomer, unassigned) [compound 219], the response vs control in vivo at 30 mg/kg came to 119% in the experiment on Aβ38 and 95% with Aβ40.

For the molecule `Cc1cn(-c2ccc3n(c2=O)C[C@@H](C)N(Cc2cc(N4CCCC4)ccc2Cl)C3=O)cn1` [compound 82], the response vs control in vivo at 30 mg/kg with Aβ38 was determined as 118%; with Aβ40 it was 125%.

`Cc1cn(-c2ccc3n(c2=O)C[C@@H](C)N(Cc2cc(N4CCC(C)CC4)ccc2Cl)C3=O)cn1` [compound 80]: the response vs control in vivo at 30 mg/kg turned out to be 133% in the experiment on Aβ38 and 164% in the experiment on Aβ40.

Regarding `COc1cccc(CN2C(=O)c3ccc(-n4cnc(C)c4)c(=O)n3C[C@H]2C)c1` [compound 132], the values for the response vs control in vivo at 30 mg/kg in the experiment with Aβ38 and with Aβ40 were 84% and 121%, respectively.
